Reference: patent publication US9828378B2, “Kinase inhibitors and methods of use” (Intellikine LLC, priority 2008, dated 2017)
Read-outs that look alike come from different tables or passages of the source.

What was measured:
PI3K/Akt/mTor signaling = assay: Kinase signaling in blood (phosflow); assay type: cell-based; conditions: anti-CD3 stimulation
Protocol: PI3K/Akt/mTor signaling is measured in blood cells using the phosflow method (Methods Enzymol. 2007; 434:131-54). The advantage of this method is that it is by nature a single cell assay so that cellular heterogeneity can be detected rather than population averages. This allows concurrent dinstinction of signaling states in different populations defined by other markers. Phosflow is also highly quantitative. To test the effects of the inhibitors disclosed herein, unfractionated splenocytes, or peripheral blood mononuclear cells are stimulated with anti-CD3 to initiate T-cell receptor signaling. The cells are then fixed and stained for surface markers and intracellular phosphoproteins.
Similarly, aliquots of whole blood are incubated for 15 minutes with vehicle (e.g. 0.1% DMSO) or kinase inhibitors at various concentrations, before addition of stimuli to crosslink the T cell receptor (TCR) (anti-CD3 with secondary antibody) or the B cell receptor (BCR) using anti-kappa light chain antibody (Fab′2 fragments). After approximately 5 and 15 minutes, samples are fixed (e.g. with cold 4% paraformaldehyde) and used for phosflow. […] The level of phosphrylation of kinase substrates such as Akt and S6 are then measured by incubating the fixed cells with labeled antibodies specific to the phosphorylated isoforms of these proteins. The population of cells are then analyzed by flow cytometery. […]

[1] = test system: leukemic cells from p190 transduced cultures; conditions: about 70 mg/kg twice daily; cited from earlier work
B6.Sle1z.Sle3z model = conditions: cited from earlier work
PC3 = assay: Tumor cell line proliferation assay (Alamar Blue); assay type: cell-based; conditions: Homo sapiens, PC-3
Protocol: The ability of one or more subject compounds to inhibit tumor cell line proliferation is determined according to standard procedures known in the art. For instance, an in vitro cellular proliferation assay can be performed to measure the metabolic activity of live cells. The assay is performed in a 96 well microtiter plate using Alamar Blue reduction. […] A compound disclosed herein is diluted in Tumor Cell Media and added in a 10 ul volume. […] A volume of 10 uL of Alamar Blue reagent is added to each well and plates are incubated for 3 hours at 37 C and 5% CO2. Alamar Blue fluoresce is read at 560Ex/590Em, and IC50 values are calculated using GraphPad Prism 5.

mTORC = mTORC (Homo sapiens (Human), UniProt P42345); assay: mTOR kinase inhibition assay; assay type: biochemical; conditions: Table 2; compound numbers of Table 3; read-out: IC50 results mTORC
Protocol: The compounds described herein can be tested against recombinant mTOR (Invitrogen) in an assay containing 50 mM HEPES, pH 7.5, 1 mM EGTA, 10 mM MgCl2, 2.5 mM, 0.01% Tween, 10 μM ATP (2.5 μCi of p-32P-ATP), and 3 μg/mL BSA. Rat recombinant PHAS-1/4EBP1 (Calbiochem; 2 mg/mL) is used as a substrate. Reactions are terminated by spotting onto nitrocellulose, which is washed with 1M NaCl/1% phosphoric acid (approximately 6 times, 5-10 minutes each). Sheets are dried and the transferred radioactivity quantitated by phosphorimaging.
For instance, one can use Invitrogen's LanthaScreen™ Kinase assay to test the inhibitors of mTOR disclosed herein. This assay is a time resolved FRET platform that measures the phosphorylation of GFP labeled 4EBP1 by mTOR kinase. The kinase reaction is performed in a white 384 well microtitre plate. The total reaction volume is 20 ul per well and the reaction buffer composition is 50 mM HEPES pH7.5, 0.01% Polysorbate 20, 1 mM EGTA, 10 mM MnCl2, and 2 mM DTT. In the first step, each well receives 2 ul of test compound in 20% dimethylsulphoxide resulting in a 2% DMSO final concentration. Next, 8 ul of mTOR diluted in reaction buffer is added per well for a 60 ng/ml final concentration. To start the reaction, 10 ul of an ATP/GFP-4EBP1 mixture (diluted in reaction buffer) is added per well for a final concentration of 10 uM ATP and 0.5 uM GFP-4EBP1. The plate is sealed and incubated for 1 hour at room temperature. […] The plate is sealed, incubated for 1 hour at room temperature, and then read on a plate reader set up for LanthaScreen™ TR-FRET. Data is analyzed and IC50s are generated using GraphPad Prism 5.

PI3K α = PI3K α (Homo sapiens (Human), UniProt P42336); assay: PI3K α inhibition assay; assay type: biochemical; conditions: Table 2; compound numbers of Table 3; read-out: IC50 results PI3K alpha
Chain of PI3K α (P42336 whole entry): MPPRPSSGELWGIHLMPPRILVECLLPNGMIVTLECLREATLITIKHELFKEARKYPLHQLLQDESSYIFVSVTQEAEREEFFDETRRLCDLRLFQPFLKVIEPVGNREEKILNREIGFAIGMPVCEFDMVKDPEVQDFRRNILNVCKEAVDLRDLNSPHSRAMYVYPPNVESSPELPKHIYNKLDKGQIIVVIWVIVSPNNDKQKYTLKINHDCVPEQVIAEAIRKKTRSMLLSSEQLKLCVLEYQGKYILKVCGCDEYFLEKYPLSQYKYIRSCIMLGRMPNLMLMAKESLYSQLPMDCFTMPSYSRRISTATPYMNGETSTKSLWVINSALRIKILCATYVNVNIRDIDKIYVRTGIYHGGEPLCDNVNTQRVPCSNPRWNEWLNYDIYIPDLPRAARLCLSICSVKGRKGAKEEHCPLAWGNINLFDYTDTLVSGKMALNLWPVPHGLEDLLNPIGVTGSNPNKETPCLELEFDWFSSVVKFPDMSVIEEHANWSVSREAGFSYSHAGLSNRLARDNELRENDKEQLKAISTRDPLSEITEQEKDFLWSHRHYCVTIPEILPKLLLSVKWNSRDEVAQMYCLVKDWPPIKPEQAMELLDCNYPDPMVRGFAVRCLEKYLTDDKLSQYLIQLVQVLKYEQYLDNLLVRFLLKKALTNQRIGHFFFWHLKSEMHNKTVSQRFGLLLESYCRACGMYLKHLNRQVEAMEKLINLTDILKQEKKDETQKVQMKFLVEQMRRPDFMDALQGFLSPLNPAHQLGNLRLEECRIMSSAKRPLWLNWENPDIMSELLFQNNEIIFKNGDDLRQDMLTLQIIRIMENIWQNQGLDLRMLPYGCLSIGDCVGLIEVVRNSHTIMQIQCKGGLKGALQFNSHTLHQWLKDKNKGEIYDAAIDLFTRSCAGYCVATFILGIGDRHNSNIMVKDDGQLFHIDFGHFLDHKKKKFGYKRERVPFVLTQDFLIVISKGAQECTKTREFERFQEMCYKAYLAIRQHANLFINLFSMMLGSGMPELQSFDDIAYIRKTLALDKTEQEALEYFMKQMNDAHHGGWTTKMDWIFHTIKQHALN
Chain of PI3K α (P27986 whole entry partner): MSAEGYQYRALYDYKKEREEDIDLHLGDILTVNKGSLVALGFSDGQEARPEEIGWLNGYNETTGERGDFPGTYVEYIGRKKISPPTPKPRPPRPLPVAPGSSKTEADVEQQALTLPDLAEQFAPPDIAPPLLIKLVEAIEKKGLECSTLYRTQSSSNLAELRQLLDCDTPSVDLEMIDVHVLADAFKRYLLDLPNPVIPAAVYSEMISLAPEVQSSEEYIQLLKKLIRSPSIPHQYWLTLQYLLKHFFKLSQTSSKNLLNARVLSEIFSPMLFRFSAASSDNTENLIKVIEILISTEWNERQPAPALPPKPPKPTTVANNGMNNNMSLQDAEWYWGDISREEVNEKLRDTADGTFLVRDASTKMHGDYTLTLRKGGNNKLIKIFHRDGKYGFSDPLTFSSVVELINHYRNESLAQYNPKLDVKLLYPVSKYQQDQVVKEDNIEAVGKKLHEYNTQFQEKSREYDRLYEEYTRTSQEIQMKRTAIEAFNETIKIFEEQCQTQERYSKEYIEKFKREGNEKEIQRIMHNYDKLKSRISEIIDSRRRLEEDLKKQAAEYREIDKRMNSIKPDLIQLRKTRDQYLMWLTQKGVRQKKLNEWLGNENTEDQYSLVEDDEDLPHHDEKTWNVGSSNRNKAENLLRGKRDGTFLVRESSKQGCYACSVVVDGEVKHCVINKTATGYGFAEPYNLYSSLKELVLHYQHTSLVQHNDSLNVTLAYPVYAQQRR
Protocol: (§1) IC50 values are measured using either a standard TLC assay for lipid kinase activity (described below) or a high-throughput membrane capture assay. Kinase reactions are performed by preparing a reaction mixture containing kinase, inhibitor (2% DMSO final concentration), buffer (25 mM HEPES, pH 7.4, 10 mM MgCl2), and freshly sonicated phosphatidylinositol (100 μg/ml). Reactions are initiated by the addition of ATP containing 10 μCi of γ-32P-ATP to a final concentration 10 or 100 μM and allowed to proceed for 5 minutes at room temperature. For TLC analysis, reactions are then terminated by the addition of 105 μl 1N HCl followed by 160 μl CHCl3:MeOH (1:1). The biphasic mixture is vortexed, briefly centrifuged, and the organic phase is transferred to a new tube using a gel loading pipette tip precoated with CHCl3. […] The TLC plates are then dried, exposed to a phosphorimager screen (Storm, Amersham), and quantitated.
(§2) Briefly, the assay is a time resolved FRET assay that indirectly measures PIP3 product formed by the activity of a PI3-K. The kinase reaction is performed in a microtitre plate (e.g., a 384 well microtitre plate). The total reaction volume is approximately 20 ul per well. In the first step, each well receives 2 ul of test compound in 20% dimethylsulphoxide resulting in a 2% DMSO final concentration. Next, approximately 14.5 ul of a kinase/PIP2 mixture (diluted in 1× reaction buffer) is added per well for a final concentration of 0.25-0.3 ug/ml kinase and 10 uM PIP2. The plate is sealed and incubated for 15 minutes at room temperature. To start the reaction, 3.5 ul of ATP (diluted in 1× reaction buffer) is added per well for a final concentration of 10 uM ATP. The plate is sealed and incubated for 1 hour at room temperature. The reaction is stopped by adding 5 ul of Stop Solution per well and then 5 ul of Detection Mix is added per well. The plate is sealed, incubated for 1 hour at room temperature, and then read on an appropriate plate reader. Data is analyzed and IC50s are generated using GraphPad Prism 5.

PI3K β = PI3K β (Homo sapiens (Human), UniProt P42338); assay: PI3K β inhibition assay; assay type: biochemical; conditions: Table 2; compound numbers of Table 3; read-out: IC50 results PI3K beta
Chain of PI3K β (P42338 whole entry): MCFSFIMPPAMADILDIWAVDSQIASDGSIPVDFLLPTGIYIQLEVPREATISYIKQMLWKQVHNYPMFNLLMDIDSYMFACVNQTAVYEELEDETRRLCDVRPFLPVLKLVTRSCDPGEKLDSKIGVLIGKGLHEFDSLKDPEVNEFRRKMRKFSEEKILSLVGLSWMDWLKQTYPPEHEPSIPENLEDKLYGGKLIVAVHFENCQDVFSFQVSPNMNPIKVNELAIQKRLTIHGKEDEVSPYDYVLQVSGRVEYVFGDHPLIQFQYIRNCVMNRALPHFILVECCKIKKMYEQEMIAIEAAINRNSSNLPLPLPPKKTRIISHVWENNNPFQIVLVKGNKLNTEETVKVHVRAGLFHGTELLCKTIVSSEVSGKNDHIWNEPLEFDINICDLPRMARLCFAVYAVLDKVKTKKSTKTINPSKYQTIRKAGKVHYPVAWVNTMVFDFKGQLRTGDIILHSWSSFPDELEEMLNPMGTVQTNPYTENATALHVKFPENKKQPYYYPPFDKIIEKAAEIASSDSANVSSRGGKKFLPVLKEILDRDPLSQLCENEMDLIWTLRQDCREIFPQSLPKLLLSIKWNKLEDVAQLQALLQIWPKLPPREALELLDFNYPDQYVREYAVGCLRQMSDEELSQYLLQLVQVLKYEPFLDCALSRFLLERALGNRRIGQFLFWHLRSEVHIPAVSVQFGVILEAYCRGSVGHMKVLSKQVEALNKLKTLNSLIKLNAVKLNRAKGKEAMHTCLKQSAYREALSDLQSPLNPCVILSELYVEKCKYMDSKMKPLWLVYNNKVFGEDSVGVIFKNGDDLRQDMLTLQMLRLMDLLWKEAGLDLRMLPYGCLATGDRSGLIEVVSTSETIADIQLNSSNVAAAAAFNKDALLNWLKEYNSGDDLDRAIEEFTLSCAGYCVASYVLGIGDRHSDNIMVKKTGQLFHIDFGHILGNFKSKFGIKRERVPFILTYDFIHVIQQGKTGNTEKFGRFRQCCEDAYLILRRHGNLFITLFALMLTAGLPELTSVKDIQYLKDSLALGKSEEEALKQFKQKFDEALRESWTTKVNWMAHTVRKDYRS
Chain of PI3K β (P27986 whole entry partner): as the sequence (P27986 whole entry partner) above
Protocol: as §1, §2

PI3K γ = PI3K γ (Homo sapiens (Human), UniProt P48736); assay: PI3K γ inhibition assay; assay type: biochemical; conditions: Table 2; compound numbers of Table 3; read-out: IC50 results PI3K gamma
Chain of PI3K γ (P48736 whole entry): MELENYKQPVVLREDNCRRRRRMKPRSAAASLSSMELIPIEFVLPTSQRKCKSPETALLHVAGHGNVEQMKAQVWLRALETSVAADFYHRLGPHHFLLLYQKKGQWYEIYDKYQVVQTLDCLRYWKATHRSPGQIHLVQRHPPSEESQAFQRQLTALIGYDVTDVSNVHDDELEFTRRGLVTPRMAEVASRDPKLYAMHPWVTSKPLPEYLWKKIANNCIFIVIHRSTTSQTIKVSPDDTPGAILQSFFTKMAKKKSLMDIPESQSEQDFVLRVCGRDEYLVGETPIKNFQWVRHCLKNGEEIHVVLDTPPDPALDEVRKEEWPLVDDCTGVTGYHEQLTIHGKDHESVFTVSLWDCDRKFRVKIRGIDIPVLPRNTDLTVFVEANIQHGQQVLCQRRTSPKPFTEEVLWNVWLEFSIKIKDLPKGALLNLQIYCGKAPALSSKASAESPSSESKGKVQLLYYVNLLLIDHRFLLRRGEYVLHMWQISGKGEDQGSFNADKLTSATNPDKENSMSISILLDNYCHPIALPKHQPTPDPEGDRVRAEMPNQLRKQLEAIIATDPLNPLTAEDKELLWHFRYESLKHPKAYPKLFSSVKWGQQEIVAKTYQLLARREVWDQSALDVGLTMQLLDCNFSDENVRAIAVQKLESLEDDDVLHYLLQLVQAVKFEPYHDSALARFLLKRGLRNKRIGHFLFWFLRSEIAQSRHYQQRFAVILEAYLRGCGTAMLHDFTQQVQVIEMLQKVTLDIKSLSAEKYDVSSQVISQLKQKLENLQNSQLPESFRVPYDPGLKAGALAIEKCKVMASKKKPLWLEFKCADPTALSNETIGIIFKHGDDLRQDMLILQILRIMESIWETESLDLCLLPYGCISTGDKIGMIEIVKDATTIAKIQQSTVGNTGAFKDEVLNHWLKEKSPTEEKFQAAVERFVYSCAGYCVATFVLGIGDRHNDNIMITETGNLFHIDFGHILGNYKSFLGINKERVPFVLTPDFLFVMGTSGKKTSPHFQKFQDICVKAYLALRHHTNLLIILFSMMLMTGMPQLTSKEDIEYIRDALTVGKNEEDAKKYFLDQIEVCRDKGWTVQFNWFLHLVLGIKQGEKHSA
Protocol: as §1, §2

PI3K δ = PI3K δ (Homo sapiens (Human), UniProt O00329); assay: PI3K δ inhibition assay; assay type: biochemical; conditions: Table 2; compound numbers of Table 3; read-out: IC50 results PI3K delta
Chain of PI3K δ (O00329 whole entry): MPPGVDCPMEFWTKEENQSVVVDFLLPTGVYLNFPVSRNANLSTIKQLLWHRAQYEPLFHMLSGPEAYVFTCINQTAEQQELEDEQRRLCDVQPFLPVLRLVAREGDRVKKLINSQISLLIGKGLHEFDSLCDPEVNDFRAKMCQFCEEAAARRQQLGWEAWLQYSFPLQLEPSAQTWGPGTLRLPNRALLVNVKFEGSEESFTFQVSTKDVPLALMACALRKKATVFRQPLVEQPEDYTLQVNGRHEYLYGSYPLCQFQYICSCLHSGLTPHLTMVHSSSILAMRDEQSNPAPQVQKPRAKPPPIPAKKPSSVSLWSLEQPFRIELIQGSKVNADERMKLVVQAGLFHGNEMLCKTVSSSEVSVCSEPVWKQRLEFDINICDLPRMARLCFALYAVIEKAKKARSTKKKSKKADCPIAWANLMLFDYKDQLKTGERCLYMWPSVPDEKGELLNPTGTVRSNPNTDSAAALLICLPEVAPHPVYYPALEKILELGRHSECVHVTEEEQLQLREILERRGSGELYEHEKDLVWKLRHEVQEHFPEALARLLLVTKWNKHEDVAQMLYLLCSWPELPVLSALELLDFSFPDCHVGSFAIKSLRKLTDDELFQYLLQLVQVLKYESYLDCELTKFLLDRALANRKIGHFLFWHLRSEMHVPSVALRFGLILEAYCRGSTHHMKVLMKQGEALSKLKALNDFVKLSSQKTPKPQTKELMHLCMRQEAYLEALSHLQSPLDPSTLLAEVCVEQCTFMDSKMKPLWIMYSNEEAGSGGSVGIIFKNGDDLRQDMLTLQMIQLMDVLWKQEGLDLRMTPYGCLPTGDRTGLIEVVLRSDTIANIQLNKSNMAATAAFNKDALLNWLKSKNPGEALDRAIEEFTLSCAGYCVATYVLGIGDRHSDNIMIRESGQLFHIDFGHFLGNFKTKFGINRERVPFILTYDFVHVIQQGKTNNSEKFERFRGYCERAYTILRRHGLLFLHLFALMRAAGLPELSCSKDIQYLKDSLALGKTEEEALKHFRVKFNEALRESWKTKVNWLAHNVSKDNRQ
Chain of PI3K δ (P27986 whole entry partner): as the sequence (P27986 whole entry partner) above
Protocol: as §1, §2

[2] = PBS pH 7.4, 24 hours, 37 C; cited from earlier work

For CO[C@H]1C[C@@H]2CC[C@@H](C)[C@@](O)(O2)C(=O)C(=O)N2CCCC[C@H]2C(=O)O[C@H]([C@H](C)C[C@@H]2CC[C@@H](O)[C@H](OC)C2)CC(=O)[C@H](C)/C=C(\C)[C@@H](O)[C@@H](OC)C(=O)[C@H](C)C[C@H](C)/C=C/C=C/C=C/1C [rapamycin], the Akt phosphorylation (PI3K/Akt/mTor signaling) was “enhances” and the S6 phosphorylation (PI3K/Akt/mTor signaling) was “inhibits”.

In the case of Cc1ccc(NC(=O)c2ccc(CN3CCN(C)CC3)cc2)cc1Nc1nccc(-c2cccnc2)n1 [imatinib], the leukemogenesis [1] is listed as “delay but not cure leukemogenesis”.

In the case of CO[C@H]1C[C@@H]2CC[C@@H](C)[C@@](O)(O2)C(=O)C(=O)N2CCCC[C@H]2C(=O)O[C@H]([C@H](C)C[C@@H]2CC[C@@H](OCCO)[C@H](OC)C2)CC(=O)[C@H](C)/C=C(\C)[C@@H](O)[C@@H](OC)C(=O)[C@H](C)C[C@H](C)/C=C/C=C/C=C/1C [RAD001], the lupus symptoms (B6.Sle1z.Sle3z model) is listed as “ameliorate lupus symptoms”.

For CC(C)n1nc(-c2cc3c(Cl)c(O)ccc3[nH]2)c2c(N)ncnc21 [Compound 22], the IC50 (PC3; Table 1, PC3 cells, read-out: PC3 proliferation) was under 500 nM.

Work on CNC(=O)Nc1nc2ccc(-c3nn(C4CCN(C(C)=O)CC4)c4ncnc(N)c34)cc2s1 [Compound 23] yielded an IC50 (mTORC) of at most 50 nM, an IC50 (PI3K α) of at most 50 nM and an IC50 (PI3K β) of at most 100 nM. It also gave an IC50 (PI3K γ) of at most 50 nM, an IC50 (PI3K δ) of at most 50 nM and an IC50 (PC3; Table 2, compound numbers of Table 3, read-out: IC50 results PC3 proliferation) of over 1000 nM.

For O=C(O)CCCc1ccc(N(CCCl)CCCl)cc1 [chlorambucil], the chemical stability [2] is listed as “largely hydrolyzed over the course of 24 hours”.
